Experimental data from patent US7259146B2, “Neuroprotective peptides” (Ortho-McNeil Pharmaceutical, Inc., priority 2000, dated 2007).
“Also recorded” adds a separate entry of the source.

Columns and labels:
PC-12 cells = assay: Glutamate toxicity in PC-12 cells (trypan blue exclusion); type: cell-based, rat; conditions: for protection against glutamate-induced cell death (in words): pre-treatment 24 hr, 200 μM glutamate
Protocol: PC-12 cells (from a rat Pheochromocytoma) were cultured on poly-D-Lysine coated tissue culture plastic in DMEM containing 10% FBS and 5% Horse serum. To induce the neuronal phenotype in PC-12 cells, serum was removed and the cells were treated with NGF (50 ng/ml). Cells were grown for 7 days in the presence of the NGF then used for experiments. PC-12 cells were cultured as described above. 24 hr prior to insult, cells were treated with rhEPO at concentrations ranging from 1 pm to 1 nm. On the day of the experiment, cells were exposed to 200 μM glutamate for 30 min. Cells were then washed 2 times with fresh media to remove the glutamate and cultured in fresh media containing NGF but no EPO. After 24 hr cells were assayed for viability using a trypan blue exclusion assay. […] Cells were then washed gently with PBS, then fixed with 10% formalin. Cell viability was determined by counting the total number of cells vs. the number of trypan blue positive (dead) cells.

rat hippocampal cultures = assay: Neurite outgrowth assay (MAP2-FITC immunofluorescence), hippocampal cultures; type: cell-based
Text: Dissociated hippocampal and cortical cell cultures were established from embryonic day 18 rat fetuses as previously described (Mattson et al., 1994). Briefly, fetuses were removed via cesarean section from pregnant moms (Sprague-Dawley) anesthetized with halothane according to the AVMA Panel on Euthanasia. Pups were decapitated and the brains were removed and placed in HEPES-buffered Hank's Balanced Salt solution (HBSS; Gibco). The hippocampi and cortices were dissected out and pooled according to tissue-type. Tissue was trypsinized for 15 min (1 mg/ml trypsin-HBSS; Worthington), rinsed with fresh HBSS, incubated in trypsin inhibitor (1 mg/ml; Sigma) for 5 min, rinsed again with fresh HBSS and then triturated in 1 ml fresh HBSS with a fire-polished glass pipette. Dissociated cells were seeded at 30,000 cells/well onto poly-D-lysine coated 96-well plates (Collaborative BioScience). Each well contained 100 μl of Eagle's Minimal Essential Media (MEM; Gibco) supplemented with 26 mM NaHCO3 (Sigma), 56 mM glucose (Sigma), 15 mM KCl (Sigma), 1 mM sodium pyruvate (Sigma), 1.1 mM L-glutamine (Sigma), 10% (v/v) heat-inactivated fetal bovine serum (Hyclone), and 0.001% gentamicin sulfate (Sigma) (pH 7.4). Cells were allowed to attach for 24 h in a humidified 37° C. 5% CO2 incubator before experimental treatment. The culture media was aspirated and exchanged with fresh media every three days.
Twenty-four hours after plating, cultures were treated with vehicle (PBS+0.1% BSA), 100 ng of various growth factors (brain derived neurotrophic factor (BDNF; Promega), glial-derived neurotrophic factor (GDNF; Promega), nerve growth factor (NGF; Boehringer Mannheim), basic fibroblast growth factor (bFGF; Boehringer Mannheim), insulin-like growth factor-1 (IGF-1; Boehringer Mannheim), neurotrophin-3 (NT3; Calbiochem), neurotrophin-4 (NT4; Calbiochem), ciliary neurotrophic factor (CNTF; Calbiochem), epidermal growth factor (EGF; Calbiochem), vascular endothelial growth factor (VEGF; Calbiochem)), or rhEPO (prepared same as above; 10 fM-10 nM)). Each treatment condition was run in quadruplicate or octuplicate. On the third day in culture, the media was aspirated off and replaced with fresh media and test compound. At one week in culture, the cells were fixed with 10% phosphate-buffered formalin for 15 min, then rinsed with DPBS (Sigma) and placed in blocking serum for 30 min (horse serum; 1:50 dilution in DPBS; Vector Labs). Cultures were rinsed again with DPBS and then incubated in primary antibody for 2 hr (microtubule-associated protein-2 (MAP-2) is a selective marker for dendritic processes; anti-mouse monoclonal (Chemicon); 1:1000 dilution of MAP-2 in antibody diluent (Zymed)). Negative control wells were incubated in antibody diluent alone. Background signal was determined by blank wells (cell-free) incubated with or without antibody. Cultures were rinsed again with DPBS and then placed in fluorescein for 1 hr (FITC; anti-mouse IgG; rat adsorbed; 1:50 dilution in DPBS; Vector Labs). Cultures were rinsed a final time with DPBS and then the plates were read on a Cytofluor 4000 fluorescence plate reader. Neurite outgrowth was expressed as percent change from control (vehicle; mean fluorescence±SD).
Dissociated hippocampal and cortical cell cultures were established from embryonic day 18 rat fetuses as previously described (Mattson et al., 1994). Briefly, fetuses were removed via cesarean section from pregnant moms (Sprague-Dawley) anesthetized with halothane according to the AVMA Panel on Euthanasia. Pups were decapitated and the brains were removed and placed in HEPES-buffered Hank's Balanced Salt solution (HBSS; Gibco). The hippocampi and cortices were dissected out and pooled according to tissue-type. […]

“EPO: purified, recombinant human EPO (rhEPO), formulated and distributed under the trademarks EPREX, ERYPO or PROCRIT” was tested, and the “cell survival, Trypan Blue exclusion assay” value (PC-12 cells; 1 to 10 pm given 24 hours prior to glutamate (200 um), p<0.001) was “significantly increased cell survival”, the “peak concentration for the neuroprotective effect” value (PC-12 cells; glutamate toxicity) was 10 pm and the “neuroprotective effect at 1 nm” value (PC-12 cells; glutamate toxicity, 1 nm) was “no significant effect”. For the same substance, the “dose response curve for the neuroprotective effect” value (PC-12 cells; glutamate toxicity, protection decreasing above 10 pm) was “bi-phasic; also recorded: decreased at higher doses”, the “protection against glutamate-induced cell death (in words)” value (PC-12 cells) was “significant decrease in cell death” and the “protection against glutamate-induced cell death (in words)” value (PC-12 cells; listed as rhEPO) was “protects rat PC12 cells against glutamate-induced cell death”. For the same substance, the “overall neurite outgrowth response, hippocampal versus cortical cultures” value (rat hippocampal cultures; comparison of hippocampal and cortical cultures) was “larger outgrowth response in the hippocampal cultures”, the “neurite outgrowth (in words)” value (rat hippocampal cultures; hippocampal cultures) was “significant increase in neurite outgrowth; also recorded: promotes neurite outgrowth” and the “concentration of maximal neurite outgrowth promoting activity” value (rat hippocampal cultures; hippocampal cultures, concentration dependent) was “maximal activity observed at pM levels”. The “neurite outgrowth response over control” value (rat hippocampal cultures; hippocampal cultures, rhEPO 10 fM-10 nM, one week in culture) was 12–44% and the “outgrowth promoting activity compared to known growth factors” value (rat hippocampal cultures; hippocampal cultures, growth factors 100 ng) was “superior to several growth factors including BDNF, NGF and VEGF”.
